# What was measured:
# [1] = tested on: HCV replicon RNA (GenBank Accession No. AJ242654); assay: HCV Replicon Assay (replicon RNA reduction and/or Fluc reporter signal); assay type: cell-based, Hepatitis C virus; conditions: Hepatitis C virus, 72 h, replicon-containing cells cultured with test compound for up to 3 days
# Summary of the method: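 IC50 values mostly reflect the drop in replicon RNA, though Fluc reporter signal may also be used. Compound incubated with cells carrying the bicistronic replicon for as long as 3 days; interferon served as positive control.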
Structure (SMILES),melting point [°C],IC50 [1] [nM]
"C[C@H](NS(=O)(=O)c1ccc(-c2c(C#N)c3cc(Cl)cnc3n2-c2nccs2)nc1)C(F)(F)F [Cpd 429, 6-[5-chloro-3-cyano-1-(1,3-thiazol-2-yl)-1H-pyrrolo[2,3-b]pyridin-2-yl]-N-[(2S)-1,1,1-trifluoropropan-2-yl]pyridine-3-sulfonamide]",181 to 183,< 500
"Cc1cnc2c(c1)c(C#N)c(-c1ccc(S(=O)(=O)N[C@@H](C)C(F)(F)F)cn1)n2-c1cncs1 [Cpd 430, 6-[3-cyano-5-methyl-1-(1,3-thiazol-5-yl)-1H-pyrrolo[2,3-b]pyridin-2-yl]-N-[(2S)-1,1,1-trifluoropropan-2-yl]pyridine-3-sulfonamide]",176 to 178,< 500
"Cc1cnc2c(c1)c(C#N)c(-c1ccc(S(=O)(=O)N[C@@H](C)C(F)(F)F)cn1)n2-c1ccncn1 [Cpd 431, 6-[3-cyano-5-methyl-1-(pyrimidin-4-yl)-1H-pyrrolo[2,3-b]pyridin-2-yl]-N-[(2S)-1,1,1-trifluoropropan-2-yl]pyridine-3-sulfonamide]",233 to 235,< 500
"Cc1cnc2c(c1)c(C#N)c(-c1ccc(S(=O)(=O)N[C@@H](C)C(F)(F)F)cn1)n2-c1ccc(F)cn1 [Cpd 432, 6-[3-cyano-1-(5-fluoropyridin-2-yl)-5-methyl-1H-pyrrolo[2,3-b]pyridin-2-yl]-N-[(2S)-1,1,1-trifluoropropan-2-yl]pyridine-3-sulfonamide]",199 to 200,< 500
"Cc1cnc2c(c1)c(C#N)c(-c1ccc(S(=O)(=O)N[C@@H](C)C(F)(F)F)cn1)n2-c1cc(C(F)(F)F)ccn1 [Cpd 433, 6-{3-cyano-5-methyl-1-[4-(trifluoromethyl)pyridin-2-yl]-1H-pyrrolo[2,3-b]pyridin-2-yl}-N-[(2S)-1,1,1-trifluoropropan-2-yl]pyridine-3-sulfonamide]",192 to 194,< 500
"Cc1cnc2c(c1)c(C#N)c(-c1ccc(S(=O)(=O)N[C@@H](C)C(F)(F)F)cn1)n2-c1cc(N)ccn1 [Cpd 434, 6-[1-(4-aminopyridin-2-yl)-3-cyano-5-methyl-1H-pyrrolo[2,3-b]pyridin-2-yl]-N-[(2S)-1,1,1-trifluoropropan-2-yl]pyridine-3-sulfonamide]",202 to 203,2000 to 5000
"Cc1cnc2c(c1)c(C#N)c(-c1ccc(S(=O)(=O)N[C@@H](C)C(F)(F)F)cn1)n2-c1ncc(Br)cn1 [Cpd 435, 6-[1-(5-bromopyrimidin-2-yl)-3-cyano-5-methyl-1H-pyrrolo[2,3-b]pyridin-2-yl]-N-[(2S)-1,1,1-trifluoropropan-2-yl]pyridine-3-sulfonamide]",169 to 171,500 to 2000
"Cc1cnc2c(c1)c(C#N)c(-c1ccc(S(=O)(=O)N[C@@H](C)C(F)(F)F)cn1)n2-c1ccnnc1 [Cpd 436, 6-[3-cyano-5-methyl-1-(pyridazin-4-yl)-1H-pyrrolo[2,3-b]pyridin-2-yl]-N-[(2S)-1,1,1-trifluoropropan-2-yl]pyridine-3-sulfonamide]",196 to 198,< 500
"C[C@H](NS(=O)(=O)c1ccc(-c2c(C(N)=O)c3cc(C(F)(F)F)cnc3n2C2CCCCC2)cc1)C(F)(F)F [Cpd 437, 1-cyclohexyl-5-(trifluoromethyl)-2-(4-{[(2S)-1,1,1-trifluoropropan-2-yl]sulfamoyl}phenyl)-1H-pyrrolo[2,3-b]pyridine-3-carboxamide]",291 to 293,< 500
"CC(C)(NS(=O)(=O)c1ccc(-c2c(C(N)=O)c3cc(C(F)(F)F)cnc3n2C2CCCCC2)nc1)C(F)(F)F [Cpd 438, 1-cyclohexyl-5-(trifluoromethyl)-2-{5-[(1,1,1-trifluoro-2-methylpropan-2-yl)sulfamoyl]pyridin-2-yl}-1H-pyrrolo[2,3-b]pyridine-3-carboxamide]",250 to 252,< 500
"CC(C)(NS(=O)(=O)c1ccc(-c2c(C(N)=O)c3cc(C(F)(F)F)cnc3n2C2CCCCC2)cc1)C(F)(F)F [Cpd 439, 1-cyclohexyl-5-(trifluoromethyl)-2-{4-[(1,1,1-trifluoro-2-methylpropan-2-yl)sulfamoyl]phenyl}-1H-pyrrolo[2,3-b]pyridine-3-carboxamide]",280 to 283,< 500
"NC(=O)c1c(-c2ccc(S(=O)(=O)NC3(C(F)(F)F)CC3)cn2)n(C2CCCCC2)c2ncc(C(F)(F)F)cc12 [Cpd 440, 1-cyclohexyl-5-(trifluoromethyl)-2-(5-{[1-(trifluoromethyl)cyclopropyl]sulfamoyl}pyridin-2-yl)-1H-pyrrolo[2,3-b]pyridine-3-carboxamide]",272 to 275,< 500
"NC(=O)c1c(-c2ccc(S(=O)(=O)NC3(C(F)(F)F)CC3)cc2)n(C2CCCCC2)c2ncc(C(F)(F)F)cc12 [Cpd 441, 1-cyclohexyl-5-(trifluoromethyl)-2-(4-{[1-(trifluoromethyl)cyclopropyl]sulfamoyl}phenyl)-1H-pyrrolo[2,3-b]pyridine-3-carboxamide]",303 to 306,< 500
"CC1(NS(=O)(=O)c2ccc(-c3c(C(N)=O)c4cc(C(F)(F)F)cnc4n3C3CCCCC3)cc2)CC1 [Cpd 442, 1-cyclohexyl-2-{4-[(1-methylcyclopropyl)sulfamoyl]phenyl}-5-(trifluoromethyl)-1H-pyrrolo[2,3-b]pyridine-3-carboxamide]",284 to 286,< 500
"CC(C)(C)NS(=O)(=O)c1ccc(-c2c(C(N)=O)c3cc(C(F)(F)F)cnc3n2C2CCCCC2)cc1 [Cpd 443, 2-[4-(tert-butylsulfamoyl)phenyl]-1-cyclohexyl-5-(trifluoromethyl)-1H-pyrrolo[2,3-b]pyridine-3-carboxamide]",290 to 292,< 500
"C[C@@H](NS(=O)(=O)c1ccc(-c2c(C(N)=O)c3cc(C(F)(F)F)cnc3n2C2CCCCC2)cc1)C(F)(F)F [Cpd 444, 1-cyclohexyl-5-(trifluoromethyl)-2-(4-{[(2R)-1,1,1-trifluoropropan-2-yl]sulfamoyl}phenyl)-1H-pyrrolo[2,3-b]pyridine-3-carboxamide]",285 to 287,< 500
"CC(C)S(=O)(=O)Nc1ccc(-c2c(C(N)=O)c3cc(C(F)(F)F)cnc3n2C2CCCCC2)cc1 [Cpd 446, 1-cyclohexyl-2-{4-[(propan-2-ylsulfonyl)amino]phenyl}-5-(trifluoromethyl)-1H-pyrrolo[2,3-b]pyridine-3-carboxamide]",203 to 205,< 500
"CC1(S(=O)(=O)Nc2ccc(-c3c(C(N)=O)c4cc(C(F)(F)F)cnc4n3C3CCCCC3)cc2)CC1 [Cpd 447, 1-cyclohexyl-2-(4-{[(1-methylcyclopropyl)sulfonyl]amino}phenyl)-5-(trifluoromethyl)-1H-pyrrolo[2,3-b]pyridine-3-carboxamide]",268 to 270,< 500
"NC(=O)c1c(-c2ccc(NS(=O)(=O)C3CC3)cc2)n(C2CCCCC2)c2ncc(C(F)(F)F)cc12 [Cpd 448, 1-cyclohexyl-2-{4-[(cyclopropylsulfonyl)amino]phenyl}-5-(trifluoromethyl)-1H-pyrrolo[2,3-b]pyridine-3-carboxamide]",220 to 222,500 to 2000
"NC(=O)c1c(-c2ccc(NS(=O)(=O)C3CCC3)cc2)n(C2CCCCC2)c2ncc(C(F)(F)F)cc12 [Cpd 449, 2-{4-[(cyclobutylsulfonyl)amino]phenyl}-1-cyclohexyl-5-(trifluoromethyl)-1H-pyrrolo[2,3-b]pyridine-3-carboxamide]",256 to 258,500 to 2000
"Cc1cnc2c(c1)c(C#N)c(-c1ccc(S(=O)(=O)N[C@@H](C)C(F)(F)F)cn1)n2-c1nccs1 [Cpd 450, 6-[3-cyano-5-methyl-1-(1,3-thiazol-2-yl)-1H-pyrrolo[2,3-b]pyridin-2-yl]-N-[(2S)-1,1,1-trifluoropropan-2-yl]pyridine-3-sulfonamide]",208 to 210,< 500
"C[C@H](NS(=O)(=O)c1ccc(-c2c(C#N)c3cc(C(F)F)cnc3n2C2CCC2)nc1)C(F)(F)F [Cpd 452, 6-[3-cyano-1-cyclobutyl-5-(difluoromethyl)-1H-pyrrolo[2,3-b]pyridin-2-yl]-N-[(2S)-1,1,1-trifluoropropan-2-yl]pyridine-3-sulfonamide]",158 to 159,< 500
"C[C@H](NS(=O)(=O)c1ccc(-c2c(C#N)c3cc(C(F)F)cnc3n2C2CCC2)cc1)C(F)(F)F [Cpd 453, 4-[3-cyano-1-cyclobutyl-5-(difluoromethyl)-1H-pyrrolo[2,3-b]pyridin-2-yl]-N-[(2S)-1,1,1-trifluoropropan-2-yl]benzenesulfonamide]",203 to 205,< 500
"C[C@H](NS(=O)(=O)c1cnc(-c2c(C#N)c3cc(C(F)F)cnc3n2C2CCC2)nc1)C(F)(F)F [Cpd 454, 2-[3-cyano-1-cyclobutyl-5-(difluoromethyl)-1H-pyrrolo[2,3-b]pyridin-2-yl]-N-[(2S)-1,1,1-trifluoropropan-2-yl]pyrimidine-5-sulfonamide]",155 to 156,< 500
"CC(C)NS(=O)(=O)c1ccc(-c2c(C#N)c3cc(C(F)F)cnc3n2C2CCC2)nc1 [Cpd 455, 6-[3-cyano-1-cyclobutyl-5-(difluoromethyl)-1H-pyrrolo[2,3-b]pyridin-2-yl]-N-(propan-2-yl)pyridine-3-sulfonamide]",189 to 190,< 500
"C[C@H](NS(=O)(=O)c1ccc(-c2c(C#N)c3cc(C(F)F)cnc3n2C2CCC2)nc1)C1CC1 [Cpd 458, 6-[3-cyano-1-cyclobutyl-5-(difluoromethyl)-1H-pyrrolo[2,3-b]pyridin-2-yl]-N-[(1S)-1-cyclopropylethyl]pyridine-3-sulfonamide]",164 to 165,< 500

# — patent US9593108B2, “Compounds and methods for antiviral treatment” (PTC Therapeutics, Inc., priority 2009, dated 2017)
